We go through ten compounds from patent publication US5389655A, “Phenylfuroxans” (Cassella AG, priority 1992, dated 1995).

Counter-ions that a name gives are not always drawn.

In one assay the test system is pulmonary artery of the guinea-pig. The assay can be described thus: relaxation of guinea-pig potassium-depolarised pulmonary artery strips (inhibition of CaCl2-induced contraction). Particulars: Cavia porcellus, read-out: IC50 (concentration of the test substance which inhibits the contraction by 50%). An excerpt: As a guanylate cyclase activator, nitrogen monoxide leads to an increase in cyclic guanosine monophosphate, which causes a relaxation in the smooth muscle and antiadhesive and antiaggregatory actions in the blood platelets. Nitrogen monoxide is additionally crucially involved in learning processes, in the regulation of the kidney function, in immune defence, in septic shock and in erectile dysfunctions. […] In this method, spiral strips of the pulmonary artery of the guinea-pig are depolarised using 40 mmol/l potassium after equilibration in calcium-free Tyrode solution. An addition of 0.5 mmol/l of CaCl2 then induces a contraction.
Take `O=[N+]([O-])O[C@@H]1CO[C@H]2[C@@H]1OC[C@@H]2O` [Isosorbide-5-mononitrate, reference compound]: the IC50 is over 100000 nM.

The assay is the same for the next values; noted with them: Cavia porcellus; spiral strips depolarised with 40 mmol/l potassium; contraction by 0.5 mmol/l CaCl2; cumulative addition; average of 4 to 6 vessel strips; read-out: IC50 (concentration of the test substance which inhibits the contraction by 50%).
For the compound `[O-][n+]1onc(OCc2cccnc2)c1-c1ccccc1` [Compound 12, 3-Phenyl-4-(pyrid-3-ylmethoxy)-1,2,5-oxadiazole-2-oxide], the IC50 amounted to 3000 nM. Same read-out and setting: for `CCCCS(=O)(=O)c1no[n+]([O-])c1-c1ccccc1` [Compound 9, 3-Phenyl-4-butylsulphonyl-1,2,5-oxadiazole-2-oxide] the value was 30 nM; for `CCN(CC)CCS(=O)(=O)c1no[n+]([O-])c1-c1ccccc1` [Compound 5, 3-Phenyl-4-(2-diethylaminoethylsulphonyl)-1,2,5-oxadiazole-2-oxide], 700 nM; for `NC(=O)C[S+]([O-])c1no[n+]([O-])c1-c1ccccc1` (stereo not shown) [Compound 19, 3-Phenyl-4-(aminocarbonylmethylsulphinyl)-1,2,5-oxadiazole-2-oxide], 2000 nM. Same read-out and setting: for `O=S(=O)(CCO)c1no[n+]([O-])c1-c1ccccc1` [Compound 10, 3-Phenyl-4-(2-hydroxyethylsulphonyl)-1,2,5-oxadiazole-2-oxide] the value was 300 nM; for `CN(CCOc1no[n+]([O-])c1-c1ccccc1)Cc1ccccc1` [Compound 6, 3-Phenyl-4-(2-(N-benzyl-N-methylamino)ethoxy)-1,2,5-oxadiazole-2-oxide hydrochloride], 4000 nM; for `CCS(=O)(=O)c1no[n+]([O-])c1-c1ccccc1` [Compound 20, 3-Phenyl-4-ethylsulphonyl-1,2,5-oxadiazole-2-oxide], 50 nM. Turning to `COC(=O)C[S+]([O-])c1no[n+]([O-])c1-c1ccccc1` (stereo not shown) [Compound 2, 3-Phenyl-4-(methoxycarbonylmethylsulphinyl)-1,2,5-oxadiazole-2-oxide], the IC50 amounted to 3000 nM. Turning to `CCOC(=O)[N-]c1cn(N2CCOCC2)n[o+]1` [Molsidomine, reference compound], the IC50 stood at 300000 nM.
